Data published in patent publication US20110319411A1, “ISOINDOLINONE AND RELATED ANALOGS AS SIRTUIN MODULATORS” (Sirtis Pharmaceuticals, Inc., priority 2008, published 2011).

Target: T1, SIRT1 (Homo sapiens, UniProt Q96EB6)
T1 construct: made in house; host or cells: E. coli BL21(DE3)
T1 sequence (Q96EB6 1-747): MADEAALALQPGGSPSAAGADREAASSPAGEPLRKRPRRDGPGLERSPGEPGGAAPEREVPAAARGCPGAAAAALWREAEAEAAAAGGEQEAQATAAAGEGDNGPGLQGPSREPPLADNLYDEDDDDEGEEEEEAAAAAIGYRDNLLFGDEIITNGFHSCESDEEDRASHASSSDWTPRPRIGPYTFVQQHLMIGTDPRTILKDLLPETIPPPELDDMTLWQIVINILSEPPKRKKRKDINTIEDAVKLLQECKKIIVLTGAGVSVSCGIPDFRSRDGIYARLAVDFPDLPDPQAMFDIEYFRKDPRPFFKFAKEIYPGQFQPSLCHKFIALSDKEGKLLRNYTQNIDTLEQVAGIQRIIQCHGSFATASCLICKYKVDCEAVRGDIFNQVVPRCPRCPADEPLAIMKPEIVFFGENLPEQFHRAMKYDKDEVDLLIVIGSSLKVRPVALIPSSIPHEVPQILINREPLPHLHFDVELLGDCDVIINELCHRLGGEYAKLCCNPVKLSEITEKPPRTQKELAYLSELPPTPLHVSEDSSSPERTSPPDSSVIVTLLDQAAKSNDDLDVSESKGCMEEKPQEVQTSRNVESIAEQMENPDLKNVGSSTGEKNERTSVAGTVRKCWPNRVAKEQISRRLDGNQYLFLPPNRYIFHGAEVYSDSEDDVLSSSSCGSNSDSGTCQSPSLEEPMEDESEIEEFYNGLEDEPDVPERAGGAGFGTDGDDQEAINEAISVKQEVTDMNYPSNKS
Assay: mass spectrometry based assay to identify modulators of SIRT1 activity
Type: biochemical
Conditions: 10 nM SIRT1, 0.5 μM peptide substrate, 120 μM βNAD+, 25 minutes at 25° C.; for Emax: 25 min, read-out: % FOLD ACT. (percent maximum fold activation)
Excerpt: A mass spectrometry based assay was used to identify modulators of SIRT1 activity. The mass spectrometry based assay utilizes a peptide having 20 amino acid residues as follows: Ac-EE-K(biotin)-GQSTSSHSK(Ac)NleSTEG-K(5TMR)-EE-NH2 (SEQ ID NO: 1) wherein K(Ac) is an acetylated lysine residue and Nle is a norleucine. The peptide is labeled with the fluorophore 5TMR (excitation 540 nm/emission 580 nm) at the C-terminus. The sequence of the peptide substrate is based on p53 with several modifications. In addition, the methionine residue naturally present in the sequence was replaced with the norleucine because the methionine may be susceptible to oxidation during synthesis and purification.
The mass spectrometry assay is conducted as follows: 0.5 μM peptide substrate and 120 μM βNAD^+ is incubated with 10 nM SIRT1 for 25 minutes at 25° C. in a reaction buffer (50 mM Tris-acetate pH 8, 137 mM NaCl, 2.7 mM KCl, 1 mM MgCl2, 5 mM DTT, 0.05% BSA). Test compounds may be added to the reaction as described above. The SirT1 gene is cloned into a T7-promoter containing vector and transformed into BL21(DE3). After the 25 minute incubation with SIRT1, 10 μL of 10% formic acid is added to stop the reaction. Reactions are sealed and frozen for later mass spec analysis. Determination of the mass of the substrate peptide allows for precise determination of the degree of acetylation (i.e. starting material) as compared to deacetylated peptide (product).
A control for inhibition of sirtuin activity is conducted by adding 1 μL of 500 mM nicotinamide as a negative control at the start of the reaction (e.g., permits determination of maximum sirtuin inhibition). A control for activation of sirtuin activity is conducted using 10 nM of sirtuin protein, with 1 μL of DMSO in place of compound, to determine the amount of deacetylation of the substrate at a given timepoint within the linear range of the assay. This timepoint is the same as that used for test compounds and, within the linear range, the endpoint represents a change in velocity.
For the above assay, SIRT1 protein was expressed and purified as follows. The SirT1 gene was cloned into a T7-promoter containing vector and transformed into BL21(DE3). The protein was expressed by induction with 1 mM IPTG as an N-terminal His-tag fusion protein at 18° C. overnight and harvested at 30,000×g. Cells were lysed with lysozyme in lysis buffer (50 mM Tris-HCl, 2 mM Tris[2-carboxyethyl]phosphine (TCEP), 10 μM ZnCl2, 200 mM NaCl) and further treated with sonication for 10 min for complete lysis. The protein was purified over a Ni-NTA column (Amersham) and fractions containing pure protein were pooled, concentrated and run over a sizing column (Sephadex S200 26/60 global). The peak containing soluble protein was collected and run on an Ion-exchange column (MonoQ). Gradient elution (200 mM-500 mM NaCl) yielded pure protein. This protein was concentrated and dialyzed against dialysis buffer (20 mM Tris-HCl, 2 mM TCEP) overnight. The protein was aliquoted and frozen at −80° C. until further use.
Sirtuin modulating compounds that activated SIRT1 were identified using the assay described above and are shown below in Table 1. The EC1.5 values represent the concentration of test compounds that result in 150% activation of SIRT1. The EC1.5 values for the activating compounds are represented by A (EC1.5<10 μM), B (EC1-5 10-25 μM), C (EC1.5>25 μM). The percent maximum fold activation is represented by A (Fold activation >200%) or B (Fold Activation <200%).

EC1.5 (concentration of test compound that results in 150% activation of SIRT1) | Emax [%] | SMILES
C (EC1.5>25 μM) | < 200 | O=C(Nc1cccc2c1C(=O)N(c1cccc(OC(F)(F)F)c1)C2)c1cccc(OCC(O)CO)n1 (stereo not shown) [Compound 131]
A (EC1.5<10 μM) | < 200 | O=C(Nc1cccc2c1C(=O)N(c1cccc(OC(F)(F)F)c1)C2)c1cccc(CN2CCOCC2)n1 [Compound 132]
C (EC1.5>25 μM) | < 200 | O=C(Nc1cccc2c1C(=O)N(c1cccc(C(F)(F)F)c1)C2)c1nccs1 [Compound 133]
C (EC1.5>25 μM) | < 200 | O=C(Nc1cccc2c1C(=O)N(c1cccc(C(F)(F)F)c1)C2)c1cccnn1 [Compound 134]
C (EC1.5>25 μM) | < 200 | O=C(Nc1cccc2c1C(=O)N(c1cccc(C(F)(F)F)c1)C2)c1cccc(N2CCOCC2)n1 [Compound 135]
C (EC1.5>25 μM) | < 200 | O=C(Nc1cccc2c1C(=O)N(c1cccc(C(F)(F)F)c1)C2)c1cccc(N2CCCC2)n1 [Compound 136]
C (EC1.5>25 μM) | < 200 | O=C(Nc1cccc2c1C(=O)N(c1cccc(C(F)(F)F)c1)C2)c1cncc(N2CCOCC2)n1 [Compound 137]
A (EC1.5<10 μM) | > 200 | O=C(Nc1cccc2c1C(=O)N(c1cccc(C(F)(F)F)c1)C2)c1cccc(C2CCNC2)c1 (stereo not shown) [Compound 138]
